Experiment [1] addresses T1, 5-hydroxytryptamine receptor 1F (Homo sapiens) (UniProt P30939).
T1 sequence (whole entry): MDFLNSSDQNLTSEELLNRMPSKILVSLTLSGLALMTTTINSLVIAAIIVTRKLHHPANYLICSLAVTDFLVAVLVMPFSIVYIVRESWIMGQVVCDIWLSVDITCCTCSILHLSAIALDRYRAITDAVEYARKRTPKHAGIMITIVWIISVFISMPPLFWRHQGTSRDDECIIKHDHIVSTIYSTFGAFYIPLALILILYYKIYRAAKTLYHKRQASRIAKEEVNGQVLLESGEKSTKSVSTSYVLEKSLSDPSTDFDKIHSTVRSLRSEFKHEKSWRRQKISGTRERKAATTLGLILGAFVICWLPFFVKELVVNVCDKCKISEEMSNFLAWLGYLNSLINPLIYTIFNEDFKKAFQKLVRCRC
The experiment can be described thus: Binding affinity to 5HT1F receptor after 1.5 hrs by scintillation counter.

In experiment [2] the target is 5-hydroxytryptamine receptor 7 (Homo sapiens, UniProt P34969).
For experiment [3], the target named is 5-hydroxytryptamine receptor 6 (Homo sapiens, UniProt P50406).
For experiment [4], the target named is 5-hydroxytryptamine receptor 5A (Homo sapiens, UniProt P47898).
Experiment [5] addresses T2, 5-hydroxytryptamine receptor 2C (Homo sapiens, UniProt P28335).
T2 sequence (P28335 whole entry): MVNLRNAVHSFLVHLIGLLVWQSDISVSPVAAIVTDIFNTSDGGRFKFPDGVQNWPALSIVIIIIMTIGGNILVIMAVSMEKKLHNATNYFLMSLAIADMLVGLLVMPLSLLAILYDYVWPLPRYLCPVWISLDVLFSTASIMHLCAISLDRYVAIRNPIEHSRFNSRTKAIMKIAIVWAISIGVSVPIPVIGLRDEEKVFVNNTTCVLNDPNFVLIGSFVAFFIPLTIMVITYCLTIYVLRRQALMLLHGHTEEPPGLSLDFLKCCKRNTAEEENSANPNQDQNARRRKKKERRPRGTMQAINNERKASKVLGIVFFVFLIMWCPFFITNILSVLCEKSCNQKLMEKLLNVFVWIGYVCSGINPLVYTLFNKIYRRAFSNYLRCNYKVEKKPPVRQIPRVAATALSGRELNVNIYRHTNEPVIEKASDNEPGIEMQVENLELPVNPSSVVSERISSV

Activity calls are given as the source filed them. The rule behind the calls is not given here.

Data on one molecule can be found in ChEMBL document CHEMBL2163296 (J Med Chem, 2012).

Chain of 5-hydroxytryptamine receptor 6 (P50406 whole entry): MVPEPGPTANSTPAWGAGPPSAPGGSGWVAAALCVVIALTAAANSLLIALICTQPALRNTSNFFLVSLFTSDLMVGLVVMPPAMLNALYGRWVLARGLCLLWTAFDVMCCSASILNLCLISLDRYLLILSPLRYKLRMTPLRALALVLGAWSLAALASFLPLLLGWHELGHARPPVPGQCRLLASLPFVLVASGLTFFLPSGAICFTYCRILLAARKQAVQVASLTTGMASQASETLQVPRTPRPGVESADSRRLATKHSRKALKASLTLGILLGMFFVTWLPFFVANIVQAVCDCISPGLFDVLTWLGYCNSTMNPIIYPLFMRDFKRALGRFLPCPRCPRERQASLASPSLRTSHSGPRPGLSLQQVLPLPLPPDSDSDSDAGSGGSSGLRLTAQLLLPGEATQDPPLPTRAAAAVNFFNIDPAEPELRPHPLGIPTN
Chain of 5-hydroxytryptamine receptor 5A (P47898 whole entry): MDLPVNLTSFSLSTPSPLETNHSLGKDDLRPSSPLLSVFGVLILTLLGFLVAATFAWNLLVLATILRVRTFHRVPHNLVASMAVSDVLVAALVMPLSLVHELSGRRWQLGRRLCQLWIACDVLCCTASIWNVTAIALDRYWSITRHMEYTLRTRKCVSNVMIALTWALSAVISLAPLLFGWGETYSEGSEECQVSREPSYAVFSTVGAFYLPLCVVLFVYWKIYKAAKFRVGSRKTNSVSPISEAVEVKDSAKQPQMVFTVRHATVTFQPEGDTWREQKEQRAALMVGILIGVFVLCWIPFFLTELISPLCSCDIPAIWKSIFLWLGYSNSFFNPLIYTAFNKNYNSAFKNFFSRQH
Chain of 5-hydroxytryptamine receptor 7 (P34969 whole entry): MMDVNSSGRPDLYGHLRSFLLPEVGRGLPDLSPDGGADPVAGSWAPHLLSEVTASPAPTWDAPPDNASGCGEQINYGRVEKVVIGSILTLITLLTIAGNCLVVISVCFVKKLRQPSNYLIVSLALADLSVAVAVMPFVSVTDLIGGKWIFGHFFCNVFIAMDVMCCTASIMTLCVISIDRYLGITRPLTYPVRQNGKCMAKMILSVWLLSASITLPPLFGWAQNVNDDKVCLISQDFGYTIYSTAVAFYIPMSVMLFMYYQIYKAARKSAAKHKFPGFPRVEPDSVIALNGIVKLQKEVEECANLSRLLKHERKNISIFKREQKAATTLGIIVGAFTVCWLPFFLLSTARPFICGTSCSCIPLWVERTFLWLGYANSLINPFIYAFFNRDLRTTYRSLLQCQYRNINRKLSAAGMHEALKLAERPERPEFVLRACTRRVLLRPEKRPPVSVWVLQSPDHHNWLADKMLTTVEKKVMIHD

With `CNC(=O)c1cc(Oc2ccc(NC(=O)Nc3ccc(Cl)c(C(F)(F)F)c3)cc2)ccn1` [SORAFENIB], in experiment [1], the result was inactive. Also, the Ki – broadly, a measure of affinity in units of concentration, obtained from inhibition or displacement – in experiment [2] was 7.07 µM; in experiment [3], 6.21 µM; in experiment [4], 3.3 µM; in experiment [5], 0.417 µM.
